Results from patent US8969378B2, “Inhibitor of the differentiation of T cells into Th1 cells” (Kowa Co., Ltd., priority 2007, dated 2015).

Columns and labels:
[1] = tested on: Th1 cells derived from spleen cells of MOG-immunized mice; test: Inhibition of activation of Th1 cells: IFN-γ production by MOG-stimulated spleen cells of EAE mice (ELISA); assay type: cell-based, C57BL/6 mice; details: FIG. 1; for concentration that significantly reduced the amount of IFN-γ produced by Th1 cells (inhibited activation of Th1 cells): spleen cells of MOG-immunized EAE mice, day 14, stimulated with MOG, IFN-γ in supernatant by ELISA
Method: Five C57BL/6 mice were immunized with myelin oligodendrocyte glycoprotein (MOG), and mice with experimental autoimmune encephalomyelitis ([…] model of multiple sclerosis) were prepared in a conventional manner. On day 14 after immunization, spleen cells were collected from each mouse and cultured in a 24-well culture plate coated with CD3 and CD28 antibodies, and then stimulated with MOG in the presence of pitavastatin or atorvastatin, to thereby activate Th1 cells. The Th1 cytokine (IFN-γ) concentration of the supernatant of the resultant cell culture was determined through ELISA.

[2] = tested on: human T cells; test: Differentiation of peripheral blood T cells into Th1 / Th2 cells (IL-12, anti-CD3/CD28, flow cytometry); assay type: cell-based; details: FIG. 2; for concentration exhibiting the effect of inhibiting differentiation of T cells into Th1 cells / concentration exhibiting the effect of promoting differentiation of T cells into Th2 cells: human peripheral blood cells, IL-12 100 ng/mL, four days; for concentration exhibiting the effect of inhibiting differentiation of T cells into Th1 cells: CD4-positive IFN-γ-positive cells; for concentration exhibiting the effect of promoting differentiation of T cells into Th2 cells: CD4-positive IL-4-positive cells
Method: Peripheral blood (10 mL) was collected from six healthy adults in heparin, and […] were isolated through the Ficol-Hypaque method (i.e., a customary method). The thus-isolated cells were diluted to 1×10^6/mL and then inoculated into a 24-well culture plate coated with CD3 and CD28 antibodies (Falcon), followed by culturing for four days in the presence of IL-12 (100 ng/mL), to thereby induce differentiation of T cells into Th1 cells. Atorvastatin or pitavastatin (0.01 to 10 μM) was added at the time of initiation of culturing, and the effect of each drug on differentiation of T cells into Th1 cells was examined. After completion of culturing, cells were washed thrice with PBS, and cytokines (IFN-γ and IL-4) in the cells and CD4 on the surfaces of the cells were stained in a conventional manner. The ratio of Th1 (CD4-positive, IFN-γ-positive cells) or Th2 (CD4-positive, IL-4-positive cells) to all the CD4-positive T cells was determined through flow cytometry.
Specifically, lymphocytes were stimulated with anti-CD3 antibody and anti-CD28 antibody, and the amounts of INF-γ (Th1 cytokine) and IL-4 (Th2 cytokine) in the cells were determined through flow cytometry, to thereby compare pitavastatin with atorvastatin in terms of the effect of inhibiting differentiation of peripheral blood T cells into Th1 cells, and the effect of promoting differentiation of peripheral blood T cells into Th2 cells.

SMILES | concentration that significantly reduced the amount of IFN-γ produced by Th1 cells (inhibited activation of Th1 cells) [1] [µM] | effect of inhibiting activation of Th1 cells relative to atorvastatin ([1]; versus atorvastatin, from amount of IFN-γ produced) [fold] | concentration exhibiting the effect of inhibiting differentiation of T cells into Th1 cells [2] | concentration exhibiting the effect of promoting differentiation of T cells into Th2 cells [2] | Th1/Th2 ratio improving effect relative to atorvastatin ([2]; versus atorvastatin) [fold] | effect of promoting differentiation of T cells into Th2 cells relative to atorvastatin ([2]; versus atorvastatin) [fold]
O=C(O)C[C@H](O)C[C@H](O)/C=C/c1c(C2CC2)nc2ccccc2c1-c1ccc(F)cc1 [pitavastatin, (3R,5S,6E)-7-[2-cyclopropyl-4-(4-fluorophenyl)-3-quinolyl]-3,5-dihydroxy-6-heptenoic acid] | ≥ 10 | 2.5 | 1 µM | 1 µM | 10 | 10
CC(C)c1c(C(=O)Nc2ccccc2)c(-c2ccccc2)c(-c2ccc(F)cc2)n1CC[C@@H](O)C[C@@H](O)CC(=O)O [atorvastatin] | 25 | – | at least 10 μM | at least 10 μM | – | –
